Source: ChEMBL document CHEMBL1139835, “Novel quinolizidinyl derivatives as antiarrhythmic agents” (J Med Chem, 2007)
One block for each molecule: values may come before it. Calls of active or inactive are those of the source. The calls are words filed in the database; no cut-off is given here.

Experiments:
[1] = Displacement of [3H]batrachotoxin from sodium channel in rat brain; type: tissue-based
[2] = Negative inotropic activity assessed as decrease in developed tension in isolated guinea pig left atrium; type: functional, tissue-based; settings: Cavia porcellus, Cardiac atrium
Cavia porcellus [3] = species on record: Cavia porcellus; test: (§1) Activity against alternating current-induced arrhythmia in guinea pig left atrium at 10 uM; type: functional; settings: Cardiac atrium
[4] = Positive chronotropic activity in isolated guinea pig right atrium relative to control; type: functional, Cavia porcellus, Cardiac atrium
Aorta [5] = test: Inhibition of calcium-induced contraction of potassium ion depolarized guinea pig aortic strips at 100 uM; type: functional; settings: Cavia porcellus
[6] = Negative inotropic activity assessed as decrease in developed tension in isolated guinea pig left atrium at 100 uM relative to control; type: functional, Cavia porcellus, Cardiac atrium; design: scale not given: the % may be the effect or the level left
[7] = as §1; type: functional, Cavia porcellus, Cardiac atrium
[8] = Negative chronotropic activity assessed as decrease in atrial rate in isolated guinea pig right atrium at 100 uM relative to control; type: functional, Cavia porcellus, Cardiac atrium; design: scale not given: the % may be the effect or the level left
[9] = Negative inotropic activity assessed as decrease in developed tension in isolated guinea pig left atrium at 10 uM relative to control; type: functional, Cavia porcellus, Cardiac atrium; design: scale not given: the % may be the effect or the level left
Aorta [10] = test: Inhibition of calcium-induced contraction of potassium ion depolarized guinea pig aortic strips at 50 uM; type: functional; settings: Cavia porcellus
[11] = Negative chronotropic activity assessed as decrease in atrial rate in isolated guinea pig right atrium at 50 uM relative to control; type: functional, Cavia porcellus, Cardiac atrium; design: scale not given: the % may be the effect or the level left
tissue or blood = settings: Cavia porcellus, Cardiac atrium
[12] = Activity against alternating current-induced arrhythmia in guinea pig left atrium at 50 uM; type: functional, Cavia porcellus, Cardiac atrium
[13] = Negative inotropic activity assessed as decrease in developed tension in isolated guinea pig left atrium at 50 uM relative to control; type: functional, Cavia porcellus, Cardiac atrium; design: scale not given: the % may be the effect or the level left
[14] = Activity against alternating current-induced arrhythmia in guinea pig left atrium; type: functional, tissue-based; settings: Cavia porcellus, Cardiac atrium
Heart [15] = test: Atrioventricular conduction time in spontaneously beating Langendorff-perfused guinea pig heart at 1 nM; type: functional, Cavia porcellus
[16] = (§2) Activity against alternating current-induced arrhythmia in guinea pig left atrium at 100 uM; type: functional, Cavia porcellus, Cardiac atrium
Heart [17] = test: Atrioventricular conduction time in spontaneously beating Langendorff-perfused guinea pig heart at 0.1 uM; type: functional, Cavia porcellus
Heart [18] = test: Atrioventricular conduction time in spontaneously beating Langendorff-perfused guinea pig heart at 1 uM; type: functional, Cavia porcellus
Heart [19] = test: Heart rate in spontaneously beating Langendorff-perfused guinea pig heart at 0.1uM; type: functional, Cavia porcellus; design: unit: beats/min
Heart [20] = test: Intraventricular conduction time in spontaneously beating Langendorff-perfused guinea pig heart at 1 uM; type: functional, Cavia porcellus
Heart [21] = test: Ventricular action potential duration in spontaneously beating Langendorff-perfused guinea pig heart at 10 nM; type: functional, Cavia porcellus
Heart [22] = test: Atrioventricular conduction time in spontaneously beating Langendorff-perfused guinea pig heart at 10 nM; type: functional, Cavia porcellus
Heart [23] = test: Intraventricular conduction time in spontaneously beating Langendorff-perfused guinea pig heart at 1 nM; type: functional, Cavia porcellus
Heart [24] = test: Heart rate in spontaneously beating Langendorff-perfused guinea pig heart at 10 uM; type: functional, Cavia porcellus; design: unit not given here
Heart [25] = test: Intraventricular conduction time in spontaneously beating Langendorff-perfused guinea pig heart at 10 nM; type: functional, Cavia porcellus
Heart [26] = test: Ventricular action potential duration in spontaneously beating Langendorff-perfused guinea pig heart at 0.1 uM; type: functional, Cavia porcellus
Heart [27] = test: Ventricular action potential duration in spontaneously beating Langendorff-perfused guinea pig heart at 1 nM; type: functional, Cavia porcellus
Heart [28] = test: Intraventricular conduction time in spontaneously beating Langendorff-perfused guinea pig heart at 10 uM; type: functional, Cavia porcellus
Heart [29] = test: Ventricular action potential duration in spontaneously beating Langendorff-perfused guinea pig heart at 1 uM; type: functional, Cavia porcellus
Heart [30] = test: Heart rate in spontaneously beating Langendorff-perfused guinea pig heart at 1 nM; type: functional, Cavia porcellus; design: unit not given here
Heart [31] = test: Intraventricular conduction time in spontaneously beating Langendorff-perfused guinea pig heart at 0.1 uM; type: functional, Cavia porcellus
Heart [32] = test: Atrioventricular conduction time in spontaneously beating Langendorff-perfused guinea pig heart at 10 uM; type: functional, Cavia porcellus
Heart [33] = test: Heart rate in spontaneously beating Langendorff-perfused guinea pig heart at 10 nM; type: functional, Cavia porcellus; design: unit not given here
Heart [34] = test: Ventricular action potential duration in spontaneously beating Langendorff-perfused guinea pig heart at 10 uM; type: functional, Cavia porcellus
Heart [35] = test: Heart rate in spontaneously beating Langendorff-perfused guinea pig heart at 1 uM; type: functional, Cavia porcellus; design: unit not given here
[36] = Negative inotropic activity assessed as decrease in developed tension in isolated guinea pig left atrium at 1 uM relative to control; type: functional, Cavia porcellus, Cardiac atrium; design: scale not given: the % may be the effect or the level left
[37] = Negative inotropic activity assessed as decrease in developed tension in isolated guinea pig left atrium at 5 uM relative to control; type: functional, Cavia porcellus, Cardiac atrium; design: scale not given: the % may be the effect or the level left
Cavia porcellus [38] = species on record: Cavia porcellus; test: as §2; type: functional; settings: Cardiac atrium

Structure (SMILES): Cc1cc(C(=O)c2ccccc2)ccc1NC(=O)C[C@@H]1CCCN2CCCC[C@H]12
- IC50 [1]: 3700 nM

Structure (SMILES): Cc1cc(NS(C)(=O)=O)cc(C)c1NC(=O)C[C@@H]1CCCN2CCCC[C@H]12
- EC50 [2]: 310 nM
- Activity (Cavia porcellus [3]): inactive
- Activity [4]: 8%
- inhibition at 100 µM (Aorta [5]): 24%
- Activity [6]: 86%

Structure (SMILES): Cc1cc(C(=O)c2ccccc2)cc(C)c1NC(=O)C[C@@H]1CCCN2CCCC[C@H]12
- Activity [11]: 70%
- EC50 [2]: 760 nM
- EC50 (tissue or blood): 3980 nM
- Activity [12]: 55%
- inhibition at 100 µM (Aorta [5]): 31%
- Activity [13]: 88%
- EC50 [14]: 4810 nM

Structure (SMILES): CCCCc1oc2ccccc2c1C(=O)c1cc(I)c(OCCN(CC)CC)c(I)c1 [AMIODARONE]
- Activity (Heart [15]): 54 ms
- Activity [16]: 10%
- Activity (Heart [17]): 55 ms
- Activity (Heart [18]): 56 ms
- Activity (Heart [19]): 171
- Activity (Heart [20]): 22 ms
- Activity (Heart [21]): 161 ms
- Activity [8]: 72%
- Activity (Heart [22]): 55 ms
- Activity (Heart [23]): 20 ms
- Activity (Heart [24]): 132
- Activity (Heart [25]): 20 ms
- Activity (Heart [26]): 169 ms
- Activity (Heart [27]): 161 ms
- Activity (Heart [28]): 24 ms
- inhibition at 100 µM (Aorta [5]): 3%
- Activity [6]: 30%
- Activity (Heart [29]): 174 ms
- Activity (Heart [30]): 187
- Activity (Heart [31]): 21 ms
- Activity (Heart [32]): 58 ms
- Activity (Heart [33]): 180
- Activity (Heart [34]): 182 ms
- Activity (Heart [35]): 164

Structure (SMILES): CC(=O)Nc1ccc(C(=O)NC[C@@H]2CCCN3CCCC[C@H]23)cc1
- Activity [11]: 14%
- Activity (Heart [15]): 62 ms
- EC50 [2]: 59 nM
- Activity (Heart [17]): 70 ms
- Activity (Heart [18]): 72 ms
- Activity (Heart [19]): 170
- Activity (Heart [20]): 34 ms
- Activity (Heart [21]): 182 ms
- Activity (Heart [22]): 65 ms
- Activity (Heart [23]): 34 ms
- Activity (Heart [24]): 165
- Activity (Heart [25]): 33 ms
- Activity (Heart [26]): 190 ms
- Activity (Heart [27]): 170 ms
- Activity (Heart [28]): 33 ms
- Activity [12]: 92%
- inhibition at 100 µM (Aorta [5]): 3%
- Activity [9]: 86%
- Activity (Heart [29]): 195 ms
- Activity (Heart [30]): 180
- EC50 [14]: 470 nM
- Activity (Heart [31]): 32 ms
- Activity (Heart [32]): 75 ms
- Activity (Heart [33]): 175
- Activity (Heart [34]): 204 ms
- Activity (Heart [35]): 166

Structure (SMILES): O=C(NC[C@@H]1CCCN2CCCC[C@H]12)c1ccc([N+](=O)[O-])cc1
- EC50 [2]: 38 nM
- Activity [16]: 18%
- Activity [36]: 74%
- Activity [8]: 28%
- inhibition at 100 µM (Aorta [5]): 18%

Structure (SMILES): CS(=O)(=O)Nc1ccc(C(=O)NC[C@@H]2CCCN3CCCC[C@H]23)cc1
- EC50 [2]: 250 nM
- Activity [16]: 34%
- Activity [8]: 4%
- inhibition at 100 µM (Aorta [5]): 1%
- Activity [13]: 92%

Structure (SMILES): C=C[C@H]1CN2CC[C@H]1C[C@@H]2[C@@H](O)c1ccnc2ccc(OC)cc12 [QUINIDINE]
- Activity [11]: 86%
- Activity (Heart [15]): 53 ms
- EC50 [2]: 3380 nM
- Activity (Heart [17]): 57 ms
- Activity (Heart [18]): 60 ms
- Activity (Heart [19]): 140
- Activity (Heart [20]): 35 ms
- Activity (Heart [22]): 54 ms
- Activity (Heart [23]): 25 ms
- Activity (Heart [25]): 27 ms
- Activity (Heart [26]): 182 ms
- Activity (Heart [28]): 39 ms
- EC50 (tissue or blood): 3990 nM
- Activity [12]: 69%
- inhibition at 100 µM (Aorta [5]): 30%
- Activity [13]: 71%
- Activity (Heart [29]): 200 ms
- EC50 [14]: 10300 nM
- Activity (Heart [31]): 31 ms
- Activity (Heart [32]): 70 ms
- Activity (Heart [35]): 123

Structure (SMILES): Nc1ccc(C(=O)NC[C@@H]2CCCN3CCCC[C@H]23)cc1
- EC50 [2]: 460 nM
- Activity [7]: 28%
- Activity [4]: 13%
- inhibition at 100 µM (Aorta [5]): 3%
- Activity [6]: 95%

Structure (SMILES): Cc1cc([N+](=O)[O-])cc(C)c1NC(=O)C[C@@H]1CCCN2CCCC[C@H]12
- EC50 [2]: 3460 nM
- Activity (Cavia porcellus [38]): inactive
- Activity [8]: 25%
- inhibition at 100 µM (Aorta [5]): 4%
- Activity [13]: 79%

Second part, led by results:

- EC50 [2]: 630 nM
Structure (SMILES): Cc1cc(N)cc(C)c1OC[C@H]1CCCN2CCCC[C@H]12
- Activity [7]: 38%
- Activity [8]: 44%
- Activity [9]: 91%
- inhibition at 50 µM (Aorta [10]): 32%

- EC50 [2]: 160 nM
Structure (SMILES): Cc1cc(C(=O)c2ccccc2)cc(C)c1OC[C@@H]1CCCN2CCCC[C@H]12
- Activity [11]: 41%
- Activity [12]: 64%
- inhibition at 100 µM (Aorta [5]): 17%
- Activity [13]: 94%
- EC50 [14]: 6750 nM

- EC50 [2]: 290 nM
Structure (SMILES): Cc1cc(N)cc(C)c1OC[C@@H]1CCCN2CCCC[C@H]12
- Activity (Heart [15]): 58 ms
- Activity [16]: 166%
- Activity (Heart [17]): 64 ms
- Activity (Heart [18]): 66 ms
- Activity (Heart [19]): 184
- Activity (Heart [20]): 32 ms
- Activity (Heart [21]): 170 ms
- Activity [8]: 38%
- Activity (Heart [22]): 60 ms
- Activity (Heart [23]): 30 ms
- Activity (Heart [24]): 175
- Activity (Heart [25]): 33 ms
- Activity (Heart [26]): 182 ms
- Activity (Heart [27]): 160 ms
- Activity (Heart [28]): 32 ms
- Activity [37]: 83%
- inhibition at 100 µM (Aorta [5]): 15%
- Activity (Heart [29]): 194 ms
- Activity (Heart [30]): 192
- EC50 [14]: 970 nM
- Activity (Heart [31]): 31 ms
- Activity (Heart [32]): 70 ms
- Activity (Heart [33]): 190
- Activity (Heart [34]): 205 ms
- Activity (Heart [35]): 180

- EC50 [2]: 160 nM
- EC50 (tissue or blood): 6630 nM
Structure (SMILES): Cc1cc(C(=O)c2ccccc2)cc(C)c1OC[C@H]1CCCN2CCCC[C@H]12
- Activity [11]: 75%
- Activity [36]: 64%
- Activity [12]: 104%
- EC50 [14]: 19900 nM
- inhibition at 50 µM (Aorta [10]): 38%

- EC50 [2]: 140 nM
Structure (SMILES): Cc1cc(NS(C)(=O)=O)cc(C)c1OC[C@H]1CCCN2CCCC[C@H]12
- Activity [16]: 5%
- Activity [36]: 64%
- Activity [8]: 34%
- inhibition at 100 µM (Aorta [5]): 23%

- EC50 [2]: 8390 nM
- EC50 (tissue or blood): 23700 nM
Structure (SMILES): Cc1cc([N+](=O)[O-])cc(C)c1OC[C@@H]1CCCN2CCCC[C@H]12
- Activity [11]: 66%
- Activity [12]: 27%
- inhibition at 100 µM (Aorta [5]): 16%
- Activity [6]: 91%
